Assay results from patent publication US11332440B2, “4-oxo-alkylated tetramic acid compound, and preparation method thereof” (priority 2017, dated 2022).

These compounds were tested on Drosophilae containing and expressing human Abeta42 gene (assay: Pavlov's olfactory-related instantaneous memory test in Drosophila). Settings: increasing dosage, compared with memantine hydrochloride; FIG. 3.
Format: in vivo
Excerpt: Drosophila has a classical learning and memory paradigm, known as Pavlov's olfactory-related instantaneous memory. During the training program, a group of about 100 drosophilae were exposed sequentially to two odors, i.e., 3-octanol and 4-methylcyclohexanol, each odor for 60 seconds, and to fresh air for 45 seconds therebetween. During exposure to the first odor, the drosophilae were electrocuted on their feet (1.5-second pulses at 3.5-second intervals, 60V), while no electrocution was exerted during exposure to the second odor. In order to detect “instantaneous memory” (also known as “learning”), drosophilae were transferred to the selection area in the T maze immediately after training and forced to choose between the two odors. The drosophilae in each T-maze arm were then captured, anesthetized, and counted. The behavior index was calculated from the distribution of drosophilae in the T maze. […] In each experiment, the age of the control group was matched with that of the experimental group.
Pharmacodynamic evaluation of the candidate compounds: Drosophilae containing and expressing human Abeta42 gene were selected as a diseased control, and drosophilae containing but not expressing human Abeta42 gene were selected as a healthy control. The day after emergence of the drosophilae, male drosophilae were selected and fed. […] The above memory test was performed on the drosophilae on the tenth day.

Question: `O=C1C=C(OCc2ccccc2F)[C@H](Cc2ccccc2)N1` [Compound 51121] was tested. Which “dose-effect relationship to improve memory of drosophilae with Alzheimer's disease” value (from here on “dose-effect relationship”) did it give?
Answer: Its value is “eventually reaches or exceeds the level of the activity of the positive compound memantine hydrochloride”.

Question: Which “dose-effect relationship” value does the source give for `O=C1C=C(OCc2cccs2)[C@H](Cc2ccccc2)N1` [Compound 51151] here?
Answer: Its value is “eventually reaches or exceeds the level of the activity of the positive compound memantine hydrochloride”.

Question: For `O=C1C=C(OCc2cccc3ccccc23)[C@H](Cc2ccccc2)N1` [Compound 51311], which “dose-effect relationship” value is on record?
Answer: The value was “eventually reaches or exceeds the level of the activity of the positive compound memantine hydrochloride”.

Question: For `CC(=O)Oc1ccc(COC2=CC(=O)N[C@H]2Cc2ccccc2)cc1` [Compound 51351], which “dose-effect relationship” value is on record?
Answer: The value was “eventually reaches or exceeds the level of the activity of the positive compound memantine hydrochloride”.
